{
  "source": "patent US12252488B2",
  "about": "(Nimbus Saturn, Inc., priority 2021, dated 2025)",
  "data": [
    {"target": "T1, HPK1 (Homo sapiens, UniProt Q92918)", "T1 construct": "purchased Invitrogen", "T1 sequence (Q92918 whole entry)": "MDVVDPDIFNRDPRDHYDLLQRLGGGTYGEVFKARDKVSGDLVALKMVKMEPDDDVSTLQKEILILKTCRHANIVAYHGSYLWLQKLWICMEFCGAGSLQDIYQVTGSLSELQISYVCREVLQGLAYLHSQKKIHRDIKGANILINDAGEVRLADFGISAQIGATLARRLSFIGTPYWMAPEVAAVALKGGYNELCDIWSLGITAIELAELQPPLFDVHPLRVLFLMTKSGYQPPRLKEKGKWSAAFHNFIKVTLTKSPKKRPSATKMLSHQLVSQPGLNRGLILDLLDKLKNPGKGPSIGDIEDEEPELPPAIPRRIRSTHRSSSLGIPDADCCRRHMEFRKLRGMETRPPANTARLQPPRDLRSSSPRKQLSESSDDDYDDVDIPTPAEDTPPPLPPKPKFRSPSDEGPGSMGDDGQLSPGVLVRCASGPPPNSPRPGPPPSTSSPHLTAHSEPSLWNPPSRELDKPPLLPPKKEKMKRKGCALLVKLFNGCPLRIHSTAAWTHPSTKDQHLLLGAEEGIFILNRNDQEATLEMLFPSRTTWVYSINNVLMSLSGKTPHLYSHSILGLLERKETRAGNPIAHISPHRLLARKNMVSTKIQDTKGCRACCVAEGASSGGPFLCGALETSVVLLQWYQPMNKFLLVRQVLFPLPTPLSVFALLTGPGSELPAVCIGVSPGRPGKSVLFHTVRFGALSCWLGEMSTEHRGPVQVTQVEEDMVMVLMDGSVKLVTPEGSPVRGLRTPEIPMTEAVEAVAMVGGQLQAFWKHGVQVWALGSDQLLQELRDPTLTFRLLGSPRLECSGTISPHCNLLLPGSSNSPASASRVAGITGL", "experiment": "HPK1 biochemical enzyme assay (microfluidic mobility shift assay)", "conditions": "1000 uM (1 mM) ATP; Caliper mobility shift; 1.5 nM HPK1; 30 min preincubation; read-out: HPK1 1000UMATP caliper IC50", "method": "Example 33. HPK1 Biochemical Enzyme Assay\nHPK1 biochemical enzyme assay: HPK1 enzyme inhibition was measured using a microfluidic mobility shift assay. Reactions were performed in a 384-well plate, containing 1.5 nM HPK1 (Invitrogen), in assay buffer (Carna Biosciences; pH 7.4). Test compounds were titrated in ten point curves (top final assay concentration 3 μM), and preincubated with enzyme/substrate mix for 30 min prior to initiation of the reaction by addition of ATP (1 mM final concentration) and substrate (1 μM final concentration; Carna Biosciences) diluted in assay buffer supplemented by MgCl2 (final assay concentration of 5 mM). Following 60 min incubation at RT, the reaction was terminated by addition of 60 μl/well termination buffer (Carna Biosciences) and signal determination using a Caliper EZ Reader (Perkin Elmer, UK).\nThe compound numbers correspond to the compound numbers in Table 1. Compounds having an activity designated as “A” provided an IC50≤100 nM; compounds having an activity designated as “B” provided an IC50>100 nM and ≤1,000 nM; compounds having an activity designated as “C” provided an IC50>1,000 nM.", "units": {"IC50": "nM"}, "values": [
      {"smiles": "CC(C)Oc1ccc(F)c(-c2cc(Nc3ccc(N4CCC(O)CC4)cn3)c3c(=O)[nH]ccc3n2)c1", "note": "[I-67, 2-(2-fluoro-5-isopropoxy-phenyl)-4-[[5-(4-hydroxy-1-piperidyl)-2-pyridyl]amino]-6H-1,6-naphthyridin-5-one]", "IC50": "100 to 1000"},
      {"smiles": "NC(=O)c1ccc(F)c(-c2cc(Nc3ccc(N4CCC(O)CC4)cn3)c3c(=O)[nH]ccc3n2)c1", "note": "[I-51, 4-fluoro-3-[4-[[5-(4-hydroxy-1-piperidyl)-2-pyridyl]amino]-5-oxo-6H-1,6-naphthyridin-2-yl]benzamide]", "IC50": "100 to 1000"},
      {"smiles": "O=c1[nH]ccc2nc(-c3cc4c(cc3F)CCC4N3CC4(CCC4)C3)cc(Nc3ccc(N4CCC(O)CC4)cn3)c12", "note": "(stereo not shown) [I-258, 2-[3-(2-azaspiro [3.3]heptan-2-yl)-6-fluoro-indan-5-yl]-4-[[5-(4-hydroxy-1-piperidyl)-2-pyridyl]amino]-6H-1,6-naphthyridin-5-one]", "IC50": "100 to 1000"},
      {"smiles": "CC1(c2ccc(F)c(-c3cc(Nc4ccc(N5CCC(O)CC5)cn4)c4c(=O)[nH]ccc4n3)c2)CC1", "note": "[I-102, 2-[2-fluoro-5-(1-methylcyclo-propyl)phenyl]-4-[[5-(4-hydroxy-1-piperidyl)-2-pyridyl]amino]-6H-1,6-naphthyridin-5-one]", "IC50": "≤ 100"},
      {"smiles": "CNC(C)(c1ccc(F)c(-c2cc(Nc3ccc(N4CCC(O)CC4)cn3)c3c(=O)[nH]ccc3n2)c1)C(F)(F)F", "note": "(stereo not shown) [I-263, 2-[2-fluoro-5-[2,2,2-trifluoro-1-methyl-1-(methyl-amino)ethyl]phenyl]-4-[[5-(4-hydroxy-1-piperidyl)-2-pyridyl]amino]-6H-1,6-naphthyridin-5-one]", "IC50": "≤ 100"},
      {"smiles": "O=C(Nc1ccc(-c2cc(Nc3ccc(C4CCOC4)cn3)c3c(=O)[nH]ccc3n2)c(F)c1)C1CCCCC1", "note": "(single isomer, unassigned) [I-267, N-[3-fluoro-4-[5-oxo-4-[(5-THF-3-yl-2-pyridyl)amino]-6H-1,6-naphthyridin-2-yl]phenyl] cyclohexane carboxamide]", "IC50": "≤ 100"},
      {"smiles": "COc1c(C(=O)N2CCCCC2)ccc(-c2cc(Nc3ccc(N4CCC(O)CC4)cn3)c3c(=O)[nH]ccc3n2)c1F", "note": "[I-166, 2-[2-fluoro-3-methoxy-4-(piperidine-1-carbonyl)phenyl]-4-[[5-(4-hydroxy-1-piperidyl)-2-pyridyl]amino]-6H-1,6-naphthyridin-5-one]", "IC50": "≤ 100"},
      {"smiles": "CS(=O)(=O)c1ccc(Nc2cc(-c3c(F)cccc3F)nc3cc[nH]c(=O)c23)nc1", "note": "[I-18, 2-(2,6-difluoro-phenyl)-4-[(5-methyl-sulfonyl-2-pyridyl)amino]-6H-1,6-naphthyridin-5-one]", "IC50": "> 1000"},
      {"smiles": "COc1cc(-c2cc(Nc3ccc(N4CCC(O)CC4)cn3)c3c(=O)[nH]ccc3n2)c(F)c(F)c1C(=O)N1CCCCC1", "note": "[I-241, 2-[2,3-difluoro-5-methoxy-4-(piperidine-1-carbonyl)phenyl]-4-[[5-(4-hydroxy-1-piperidyl)-2-pyridyl]amino]-6H-1,6-naphthyridin-5-one]", "IC50": "100 to 1000"},
      {"smiles": "CN1CCN(Cc2ccc(-c3cc(Nc4ccc(N5CCC(O)CC5)cn4)c4c(=O)[nH]ccc4n3)c(F)c2)CC1", "note": "[I-180, 2-[2-fluoro-4-[(4-methyl-piperazin-1-yl)methyl]phenyl]-4-[[5-(4-hydroxy-1-piperidyl)-2-pyridyl]amino]-6H-1,6-naphthyridin-5-one]", "IC50": "≤ 100"},
      {"smiles": "CC(C)c1ccc(F)c(-c2cc(Nc3ccc(N4CCC5(CCOCC5)CC4)cn3)c3c(=O)[nH]ccc3n2)c1", "note": "[I-121, 2-(2-fluoro-5-isopropyl-phenyl)-4-[[5-(3-oxa-9-azaspiro [5.5]undecan-9-yl)-2-pyridyl]amino]-6H-1,6-naphthyridin-5-one]", "IC50": "≤ 100"},
      {"smiles": "O=c1[nH]ccc2nc(-c3ccnc4[nH]ccc34)cc(Nc3ccc(N4CCC(O)CC4)cn3)c12", "note": "[I-282, 4-[[5-(4-hydroxy-1-piperidyl)-2-pyridyl]amino]-2-(1H-pyrrolo [2,3-b]pyridin-4-yl)-6H-1,6-naphthyridin-5-one]", "IC50": "> 1000"},
      {"smiles": "O=C(O)c1ccc(-c2cc(Nc3ccc(N4CCC(O)CC4)cn3)c3c(=O)[nH]ccc3n2)c(F)c1", "note": "[I-134, 3-Fluoro-4-[4-[[5-(4-hydroxy-1-piperidyl)-2-pyridyl]amino]-5-oxo-6H-1,6-naphthyridin-2-yl]benzoic Acid]", "IC50": "≤ 100"},
      {"smiles": "O=c1[nH]ccc2nc(-c3ccc(C4CCCO4)cc3F)cc(Nc3ccc(N4CCC(O)CC4)cn3)c12", "note": "(stereo not shown) [I-276, 2-(2-fluoro-4-THF-2-yl-phenyl)-4-[[5-(4-hydroxy-1-piperidyl)-2-pyridyl]amino]-6H-1,6-naphthyridin-5-one]", "IC50": "> 1000"},
      {"smiles": "O=C(Nc1ccc(-c2cc(Nc3ccc(N4CCC(O)CC4)cn3)c3c(=O)[nH]ccc3n2)c(F)c1)[C@@H]1C[C@H]2CC[C@@H]1C2", "note": "(single isomer, unassigned) [I-269]", "IC50": "100 to 1000"},
      {"smiles": "O=C(c1ccc(-c2cc(Nc3ccc(N4CCC(O)CC4)cn3)c3c(=O)[nH]ccc3n2)c(F)c1)N1CC2CCC1CC2", "note": "[I-124, 2-[4-(3-azabicyclo [2.2.2]octane-3-carbonyl)-2-fluoro-phenyl]-4-[[5-(4-hydroxy-1-piperidyl)-2-pyridyl]amino]-6H-1,6-naphthyridin-5-one]", "IC50": "100 to 1000"},
      {"smiles": "O=c1[nH]ccc2nc(-c3cc(CN4CCCCC4)ccc3F)cc(Nc3ccc(N4CCC(O)CC4)cn3)c12", "note": "[I-150, 2-[2-fluoro-5-(1-piperidyl-methyl)phenyl]-4-[[5-(4-hydroxy-1-piperidyl)-2-pyridyl]amino]-6H-1,6-naphthyridin-5-one]", "IC50": "100 to 1000"},
      {"smiles": "CC(C)(O)c1ccc(F)c(-c2cc(Nc3ccc(N4CCC(O)CC4)cn3)c3c(=O)[nH]ccc3n2)c1", "note": "[I-116, 2-[2-fluoro-5-(1-hydroxy-1-methyl-ethyl)phenyl]-4-[[5-(4-hydroxy-1-piperidyl)-2-pyridyl]amino]-6H-1,6-naphthyridin-5-one]", "IC50": "100 to 1000"},
      {"smiles": "O=C(Nc1ccc(-c2cc(Nc3ccc(N4CCC(O)CC4)cn3)c3c(=O)[nH]ccc3n2)c(F)c1)[C@H]1C[C@H]2CC[C@@H]1C2", "note": "(single isomer, unassigned) [I-275]", "IC50": "≤ 100"},
      {"smiles": "COc1cc(-c2cc(Nc3ccc(N4CCNCC4)cn3)c3c(=O)[nH]ccc3n2)c(F)cc1C(=O)N(C)C", "note": "[I-176, 5-fluoro-2-methoxy-N,N-dimethyl-4-[5-oxo-4-[(5-piperazin-1-yl-2-pyridyl)amino]-6H-1,6-naphthyridin-2-yl] benzamide]", "IC50": "≤ 100"},
      {"smiles": "CCNC(=O)c1ccc(Nc2nc(-c3c(F)cccc3F)cc3nc[nH]c(=O)c23)cc1", "note": "[I-12, 4-[[7-(2,6-difluorophenyl)-4-oxo-3H-pyrido[4,3-d]pyrimidin-5-yl]amino]-N-ethyl-benzamide]", "IC50": "100 to 1000"},
      {"smiles": "CN(C)C(=O)c1ccc(-c2cc(Nc3ccc(N4CCC(O)CC4)cn3)c3c(=O)[nH]ccc3n2)c(F)c1", "note": "[I-62, 3-fluoro-4-[4-[[5-(4-hydroxy-1-piperidyl)-2-pyridyl]amino]-5-oxo-6H-1,6-naphthyridin-2-yl]-N,N-dimethyl-benzamdie]", "IC50": "100 to 1000"},
      {"smiles": "CC1(C(=O)Nc2ccc(-c3cc(Nc4ccc(N5CCC(O)CC5)cn4)c4c(=O)[nH]ccc4n3)c(F)c2)CC1", "note": "[I-153]", "IC50": "100 to 1000"},
      {"smiles": "O=C(c1ccc(-c2cc(Nc3ccc(N4CCC(O)CC4)cn3)c3c(=O)[nH]ccc3n2)c(F)c1)N1CCCC(O)C1", "note": "(stereo not shown) [I-145, 2-[2-fluoro-4-(3-hydroxy-piperidine-1-carbonyl)phenyl]-4-[[5-(4-hydroxy-1-piperidyl)-2-pyridyl]amino]-6H-1,6-naphthyridin-5-one]", "IC50": "> 1000"},
      {"smiles": "Cc1cccc(-c2cc(Nc3ccc(N4CCC(O)CC4)cn3)c3c(=O)[nH]ccc3n2)c1F", "note": "[I-68, 2-(2-fluoro-3-methyl-phenyl)-4-[[5-(4-hydroxy-1-piperidyl)-2-pyridyl]amino]-6H-1,6-naphthyridin-5-one]", "IC50": "100 to 1000"},
      {"smiles": "Cc1c[nH]nc1-c1cc(Nc2ccc(N3CCC(O)CC3)cn2)c2c(=O)[nH]ccc2n1", "note": "[I-283, 4-[[5-(4-hydroxy-1-piperidyl)-2-pyridyl]amino]-2-(4-methyl-1H-pyrazol-3-yl)-6H-1,6-naphthyridin-5-one]", "IC50": "≤ 100"},
      {"smiles": "COc1ccc(F)c(-c2cc(Nc3ccc(N4CCNCC4)cn3)c3c(=O)[nH]ccc3n2)c1F", "note": "[I-91, 2-(2,6-difluoro-3-methoxy-phenyl)-4-[(5-piperazin-1-yl-2-pyridyl)amino]-6H-1,6-naphthyridin-5-one]", "IC50": "≤ 100"},
      {"smiles": "CCOC(=O)C(C)(C)c1ccc(Nc2cc(-c3c(F)cccc3F)nc3cc[nH]c(=O)c23)nc1", "note": "[I-53, ethyl 2-[6-[[2-(2,6-difluoro-phenyl)-5-oxo-6H-1,6-naphthyridin-4-yl]amino]-3-pyridyl]-2-methyl-propanoate]", "IC50": "≤ 100"},
      {"smiles": "O=C(Nc1ccc(-c2cc(Nc3ccc(N4CCC(O)CC4)cn3)c3c(=O)[nH]ccc3n2)c(F)c1)C1CCC1", "note": "[I-152, N-[3-fluoro-4-[4-[[5-(4-hydroxy-1-piperidyl)-2-pyridyl]amino]-5-oxo-6H-1,6-naphthyridin-2-yl]phenyl] cyclobutane-carboxamide]", "IC50": "100 to 1000"},
      {"smiles": "CN1CCN(c2ccc(Nc3cc(-c4ccc(C(=O)N5CC6C(C5)C6(F)F)cc4F)nc4cc[nH]c(=O)c34)nc2)CC1", "note": "(stereo not shown) [I-279, 2-[4-(6,6-difluoro-3-azabicyclo [3.1.0]hexane-3-carbonyl)-2-fluoro-phenyl]-4-[[5-(4-methyl-piperazin-1-yl)-2-pyridyl]amino]-6H-1,6-naphthyridin-5-one]", "IC50": "≤ 100"},
      {"smiles": "COc1cc(-c2cc(Nc3ccc(N4CCN(C)CC4)cn3)c3c(=O)[nH]ccc3n2)c(F)cc1C(=O)N1CCCCC1", "note": "[I-193, 2-[2-fluoro-5-methoxy-4-(piperidine-1-carbonyl)phenyl]-4-[[5-(4-methyl-piperazin-1-yl)-2-pyridyl]amino]-6H-napthyridin-5-one]", "IC50": "100 to 1000"}
    ]}
  ]
}
